Assay results taken from publication PMC7961786, “Magic Peptide: Unique Properties of the LRR11 Peptide in the Activation of Leukotriene Synthesis in Human Neutrophils” (International Journal of Molecular Sciences, 2021).

Key:
PMNLs = assay: Phagocytosis of FITC-labeled S. typhimurium by neutrophils; format: cell-based, human; details: 1 µM ODN +/- 1 µM LRR11, FITC-labeled S. typhimurium 20 min; n = 3; Figure S2b
Protocol: Figure S2b. Influence of LRR11 and ODNs on phagocytic activity of neutrophils. PMNLs supplemented with 1 µM ODN +/- 1 µM LRR11, except for control samples containing HBSS/HEPES instead of ODNs, were incubated for 20 min in Eppendorf tubes at 37 °C in 5% CO2 with continuous stirring. FITC-labeled S. typhimurium were then added for next 20 min, followed by FACS analysis (excitation: 488 nm, emission: 525 nm). Both the relative amounts of PMNLs involved in phagocytosis (A, B) and the fluorescence intensities, reflecting the average number of bacteria captured per cell (C, D), were estimated. To distinguish between internalized and surface-bound bacterial cells, trypan blue at a working concentration of 1 mg/ml, was used to quench the surface FITC fluorescence caused by the attached bacteria. Thus, each series of samples was duplicated to obtain results both without (A, C) and with (B, D) TB quenching, which corresponds to the total interaction and uptake of bacteria. Averaged flow cytometry data are presented, including means ± SEM for the percentages of FITC-positive (i.e., phagocytic) cells (A, B), and mean ± SEM for fluorescence intensities of FITC-positive subpopulations (C, D) (n=3; * p < 0.05; ** p < 0.01 in comparison with corresponding controls, ns – non significant, as indicated by two-way ANOVA followed by Dunnett’s or Tukey’s multiple comparison tests). […]

5′-biotinylated B-CpG = assay: TSM acoustic biosensor, peptide binding to immobilized B-CpG
From the text: To characterize the interaction of the studied synthetic ODNs with the LRR11 peptide, we applied the thickness shear mode (TSM) acoustic biosensor method, which is based on the investigation of ultrasonic waves in piezoelectric materials such as AT-cut quartz. This approach involved immobilizing a 5′-biotinylated ODN on the surface of TSM transducer covered by NeutrAvidin and then adding the LRR11 peptide. An unrelated peptide (URP) with a random primary structure ([…]) was used as a negative control. The measurement procedure was divided into several steps, in which each immobilization stage was followed by washing with an appropriate buffer solution; when peptide solutions at different concentrations (from 1 to 100 nM) were added to the surface-modified TSM transducer, a wash with Hanks buffer was used before increasing the peptide concentration.
Based on Langmuir isotherm Equation (1), (1) Δfcc=Δfsmaxc/KD+c where Δfs(c) is the frequency change at a certain peptide concentration under equilibrium conditions, (Δfs)max is the maximum frequency change, c is the peptide concentration, and KD is the equilibrium constant of dissociation, we estimated the (Δfs)max and KD values for binding of the LRR11 peptide to C-CpG and B-CpG (Table 3).
Eight MHz AT-cut piezoelectric quartz crystal transducer was obtained from CH Instruments, Austin, TX, USA. The transducer was covered on both sides with thin layers of gold that served as electrodes (working area 0.2 cm^2). Prior ODNs immobilization, the crystal was carefully cleaned with basic Piranha solution (29% NH3, 30% H2O and H2O2 with volumetric 1:5:1 ratio, respectively) for 25 min. After the thorough cleaning, the crystal was positioned between two silicon O-rings in a flow-through cell. The analyte was injected into the cell using a Genie Plus syringe pump (Kent Scientific, Torrington, CT, USA) at a flow rate of 50 μL/min. Each solution was applied until the resonance frequency stabilized. The surface of the transducer was first washed with deionized water, and then 125 μg/mL NeutrAvidin (WWR International GmbH, Vienna, Austria) solution in water was applied. Approximately 15 min were required to stabilize the signal at a constant NeutrAvidin flow rate. This was followed by washing with water to rinse out all non-chemisorbed NeutrAvidin molecules. Immobilization of ODN on the gold surface of the crystals is accomplished using avidin–biotin interactions. A 1 μM 5′-biotinylated ODN solution was injected over the neutravidin-modified surface and subsequently the crystal was washed again with water. The system was then equilibrated using Hanks buffer solution. This buffer was suitable for studying LRR11–ODN binding. Then LRR11 was used at concentrations of 1, 5, 10, 50 and 100 nM […] in Hanks buffer. After each addition of LRR11, the sensor surface was washed with Hanks buffer and LRR11 with the higher concentration was added. All binding experiments were carried out at room temperature. Buffer and sample solutions were introduced in a flow-through format. A network analyzer 8712ES (Agilent Technologies, Santa Clara, CA, USA) was used to measure the impedance properties of the sensor and determine fS and Rm.

NeutrAvidin = assay: TSM acoustic biosensor, immobilization of 5′-biotinylated C-CpG on NeutrAvidin surface; format: binding; details: Sauerbrey's equation, 1 μM 5′-biotinylated ODN on NeutrAvidin
From the text: Using Sauerbrey’s Equation (2), (2) Δf=−2f02Δm/Aμqρq where f0 is the fundamental resonance frequency (in our case 8 MHz), Δm is the change in mass (in grams) of the adsorbed layer on the crystal surface, A is the effective crystal area (in our case 0.2 cm^2), μq = 2.947 × 10^11 g × cm^−1s^−2 is the shear modulus of elasticity, and ρq = 2.648 g × cm^−3 is the crystal density, surface concentrations of NeutrAvidin, ODN and LRR11 peptide were estimated based on changes of resonance frequency (Figure 4). According to Equation (2), the surface density of molecules, σ (in molecules/cm^2), can be calculated as σ = ΔmNA/(A × Mw), where NA is Avogadro’s number (=6.023 × 10^23 mol^−1), and Mw represents the molecular weight of the corresponding compound (NeutrAvidin: 65 kDa, 5′-biotinylated C-CpG: 7115.4 Da, and LRR11: 3421 Da). Based on this approach, we obtained the following surface concentration values: 1.94 × 10^13 cm^−2 for NeutrAvidin, 3.37 × 10^13 cm^−2 for C-CpG and 2.4 × 10^13 cm^−2 for LRR11. The NeutrAvidin has four binding sites, two of which are available for biotinylated ODN binding. This is due to the fact that the other two sites are inaccessible due to NeutrAvidin chemisorption on the TSM surface. Thus, the number of available binding sites for the ODN is 3.88 × 10^13 cm^−2. […] Therefore, the surface of the TSM transducer is practically completely saturated by C-CpG. […]

Which results are given for “QLRKLNLSFNYQKRVSFAHLSLAPSFGSLV [LRR11, 30 amino acid peptide from leucine-rich repeat of TLR9]”?
effect on bacteria engulfment (PMNLs): LRR11 did not affect this; change of ∆fs at low LRR11 concentrations (5′-biotinylated B-CpG; 1, 5, 10 nM LRR11, B-CpG): not significant or small changes of ∆fs; Kd (5′-biotinylated B-CpG; LRR11-B-CpG complex, Langmuir fit, Hanks buffer, room temperature, LRR11 1-100 nM, three independent experiments): 55.1 ± 17.4 nM

How did the “surface concentration of C-CpG” value (NeutrAvidin) turn out when “5′-tcgtcgttttcggcgcgcgccg-3′ (DNA TCGTCGTTTTCGGCGCGCGCCG; chemistry not fully specified) [C-CpG]” was run?
The value was 3.37 × 10^13 cm^−2.
